According to publication PMC6715688, “Mycobacterial dynamin-like protein IniA mediates membrane fission” (Nature Communications, 2019):

Legend:
IniA [1] = target: IniA (Mycolicibacterium smegmatis, UniProt I7FE16, K73A); assay: isothermal titration calorimetry; format: binding
Source text: isothermal titration calorimetry on IniA | showing only a twofold reduction in affinity for GMPPNP or GTP | the mutant IniA largely maintained interactions with GDP

IniA [2] = target: IniA (Mycolicibacterium smegmatis, UniProt I7FE16); assay: isothermal titration calorimetry; format: binding
Sequence of IniA (Mycolicibacterium smegmatis, UniProt I7FE16) (I7FE16 entry or part of it): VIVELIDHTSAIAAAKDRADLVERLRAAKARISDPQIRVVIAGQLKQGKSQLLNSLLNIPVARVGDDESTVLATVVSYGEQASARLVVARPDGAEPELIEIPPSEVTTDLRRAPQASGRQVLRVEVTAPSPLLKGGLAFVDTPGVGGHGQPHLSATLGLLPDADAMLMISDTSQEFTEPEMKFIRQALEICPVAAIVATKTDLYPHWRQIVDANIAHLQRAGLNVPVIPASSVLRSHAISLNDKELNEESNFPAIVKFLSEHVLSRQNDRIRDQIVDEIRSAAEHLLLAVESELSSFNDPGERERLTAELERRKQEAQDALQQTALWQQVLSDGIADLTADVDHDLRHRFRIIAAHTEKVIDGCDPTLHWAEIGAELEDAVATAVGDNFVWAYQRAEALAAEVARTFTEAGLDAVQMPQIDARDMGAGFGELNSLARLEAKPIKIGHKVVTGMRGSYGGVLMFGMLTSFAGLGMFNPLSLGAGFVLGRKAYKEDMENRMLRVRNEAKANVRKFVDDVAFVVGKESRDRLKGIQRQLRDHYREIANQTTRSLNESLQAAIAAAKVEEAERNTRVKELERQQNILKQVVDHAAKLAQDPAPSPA

Sequence of IniA (Mycolicibacterium smegmatis, UniProt I7FE16, K73A) (I7FE16 entry or part of it K73A): as the sequence (I7FE16 entry or part of it) above

SMILES	Kd (IniA [1])	Kd (IniA [2])
Nc1nc2c(ncn2[C@@H]2O[C@H](COP(=O)(O)OP(=O)(O)O)[C@@H](O)[C@H]2O)c(=O)[nH]1 [GDP]	~1060 nM	750 nM
Nc1nc2c(ncn2[C@@H]2O[C@H](COP(=O)(O)OP(=O)(O)NP(=O)(O)O)[C@@H](O)[C@H]2O)c(=O)[nH]1 [GMPPNP]	~23200 nM	9010 nM
Nc1nc2c(ncn2[C@@H]2O[C@H](COP(=O)(O)OP(=O)(O)OP(=O)(O)O)[C@@H](O)[C@H]2O)c(=O)[nH]1 [GTP]	~1430 nM	740 nM
